Test results from US12129246B1, “Hydroquinazoline derivatives for the treatment of a disease or disorder” (Novartis AG, priority 2023, dated 2024).
Read-outs that look alike come from different tables or passages of the source.

Assays:
human NPR1 = molecular target: T1, human NPR1 (Homo sapiens, UniProt P16066); assay: Cellular cGMP production assay, human NPR1 expressing CHO-K1 cells (CisBio HTRF); assay type: cell-based; conditions: for AC50: cGMP production, 30 min at 37° C., 12-point dose-response from 30 μM; for Human NPR1 Amax (% of ANP): maximum cGMP production as percentage of the maximum cGMP produced with ANP
T1 construct: host or cells: CHO-K1
T1 sequence (P16066 33-1061): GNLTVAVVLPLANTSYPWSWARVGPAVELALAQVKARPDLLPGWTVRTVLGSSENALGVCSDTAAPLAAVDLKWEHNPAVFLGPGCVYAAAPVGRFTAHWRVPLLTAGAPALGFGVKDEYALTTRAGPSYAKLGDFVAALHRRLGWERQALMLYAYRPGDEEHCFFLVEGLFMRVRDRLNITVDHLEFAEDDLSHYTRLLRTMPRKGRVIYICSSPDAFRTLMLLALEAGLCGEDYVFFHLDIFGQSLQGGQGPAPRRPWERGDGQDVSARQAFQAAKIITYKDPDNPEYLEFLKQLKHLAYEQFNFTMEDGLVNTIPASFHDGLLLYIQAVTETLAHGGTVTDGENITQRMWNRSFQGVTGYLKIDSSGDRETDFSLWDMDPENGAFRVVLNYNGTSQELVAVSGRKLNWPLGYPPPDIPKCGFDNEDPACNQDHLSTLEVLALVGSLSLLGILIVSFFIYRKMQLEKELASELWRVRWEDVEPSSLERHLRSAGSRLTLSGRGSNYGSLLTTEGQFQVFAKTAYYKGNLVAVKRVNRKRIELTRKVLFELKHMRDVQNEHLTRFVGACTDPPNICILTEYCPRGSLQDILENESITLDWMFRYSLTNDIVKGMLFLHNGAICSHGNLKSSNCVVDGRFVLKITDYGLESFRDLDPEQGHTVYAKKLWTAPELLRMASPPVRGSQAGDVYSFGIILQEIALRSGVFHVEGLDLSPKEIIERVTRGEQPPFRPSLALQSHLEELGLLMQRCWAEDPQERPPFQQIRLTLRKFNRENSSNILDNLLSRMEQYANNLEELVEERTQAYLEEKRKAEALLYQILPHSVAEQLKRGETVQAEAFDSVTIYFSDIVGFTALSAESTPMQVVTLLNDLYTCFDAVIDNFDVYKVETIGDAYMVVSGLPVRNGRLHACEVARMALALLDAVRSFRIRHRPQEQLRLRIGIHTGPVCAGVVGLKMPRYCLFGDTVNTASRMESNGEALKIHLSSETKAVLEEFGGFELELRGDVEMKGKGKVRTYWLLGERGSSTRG
In short: (§1)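 CHO-K1 cells expressing human or cynomolgus NPR1 treated with compound (12-point, 3-fold dilutions from 30 μM top) in PBS+0.1% BSA with 1 mM IBMX, 30 min at 37° C. After lysis, cGMP quantified by HTRF competition (cGMP-d2/anti-cGMP-cryptate, 1 h RT, 665 nm emission) against a calibrator standard curve.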

monkey NPR1 = monkey NPR1 (Macaca fascicularis, UniProt A0A7N9DBT9); assay: Cellular cGMP production assay, monkey NPR1 expressing CHO-K1 cells (CisBio HTRF); assay type: cell-based; conditions: for Monkey NPR1 Amax (% of ANP): maximum cGMP production as percentage of the maximum cGMP produced with ANP
Sequence of monkey NPR1 (A0A7N9DBT9 entry or part of it): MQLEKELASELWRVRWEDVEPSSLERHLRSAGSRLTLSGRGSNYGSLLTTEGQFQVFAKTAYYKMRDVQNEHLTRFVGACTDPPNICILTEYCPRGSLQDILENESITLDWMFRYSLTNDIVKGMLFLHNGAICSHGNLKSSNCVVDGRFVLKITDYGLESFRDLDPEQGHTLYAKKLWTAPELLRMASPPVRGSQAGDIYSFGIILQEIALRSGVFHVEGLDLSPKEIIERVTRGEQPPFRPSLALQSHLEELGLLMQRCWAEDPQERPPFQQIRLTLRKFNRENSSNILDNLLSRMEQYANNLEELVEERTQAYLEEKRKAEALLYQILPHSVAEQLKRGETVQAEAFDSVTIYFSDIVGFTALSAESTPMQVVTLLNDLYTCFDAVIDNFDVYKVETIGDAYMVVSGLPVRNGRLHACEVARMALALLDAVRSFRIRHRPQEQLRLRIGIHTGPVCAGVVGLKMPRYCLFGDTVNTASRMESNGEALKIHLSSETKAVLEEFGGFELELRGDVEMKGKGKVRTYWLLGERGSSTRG
In short: as §1

[1] = cGMP production, monkey NPR1 CHO-K1 cells, 30 min at 37° C., 12-point dose-response from 30 μM, read-out: Monkey NPR1 AC50

SMILES	AC50 (human NPR1) [µM]	Human NPR1 Amax (% of ANP) (human NPR1)	AC50 (monkey NPR1; [1]) [µM]	Monkey NPR1 Amax (% of ANP) (monkey NPR1; monkey NPR1 CHO-K1 cells)	AC50 (monkey NPR1) [µM]
CC[C@H]([C@H]1CC[C@H](C(=O)O)CC1)N(C)c1nc2c(c(N[C@@H](CN3CCC[C@H](C)C3)c3cnn(C)c3)n1)C[C@](C)(c1ccccc1)CC2 [Compound 7, (1R,4r)-4-((R)-1-(methyl((R)-6-methyl-4-(((R)-1-(1-methyl-1H-pyrazol-4-yl)-2-((S)-3-methylpiperidin-1-yl)ethyl)amino)-6-phenyl-5,6,7,8-tetrahydroquinazolin-2-yl)amino)propyl)cyclohexane-1-carboxylic acid]	0.08	97.105 % of ANP	0.05	102.341 % of ANP	
CC[C@@H](Nc1nc2c(c(N[C@@H](CN3CCC[C@@H](C)C3)c3cnn(C)c3)n1)C[C@H](c1ccccc1)CC2)[C@H]1CC[C@H](C(=O)O)CC1 [Compound 84, (1R,4r)-4-((R)-1-(((R)-4-(((R)-1-(1-methyl-1H-pyrazol-4-yl)-2-((R)-3-methylpiperidin-1-yl)ethyl)amino)-6-phenyl-5,6,7,8-tetrahydroquinazolin-2-yl)amino)propyl)cyclohexane-1-carboxylic acid]	0.284	100.223 % of ANP	0.191	102.883 % of ANP	
CC[C@@H](Nc1nc2c(c(N[C@@H](CN3CCCCCC3)c3cnn(CC)c3)n1)C[C@H](c1ccccc1)CC2)[C@H]1CC[C@H](C(=O)O)CC1 [Compound 94, (1R,4r)-4-((R)-1-(((R)-4-(((R)-2-(azepan-1-yl)-1-(1-ethyl-1H-pyrazol-4-yl)ethyl)amino)-6-phenyl-5,6,7,8-tetrahydroquinazolin-2-yl)amino)propyl)cyclohexane-1-carboxylic acid]	0.326	101.620 % of ANP	0.226	105.567 % of ANP	
CC(Nc1nc2c(c(N[C@@H](CN3CCCC3)c3ccccc3)n1)CC(c1ccccc1)CC2)[C@H]1CC[C@H](C(=O)O)CC1 (stereo partly drawn) [Compound 158, (1S,4r)-4-((1S)-1-((6-phenyl-4-(((R)-1-phenyl-2-(pyrrolidin-1-yl)ethyl)amino)-5,6,7,8-tetrahydroquinazolin-2-yl)amino)ethyl)cyclohexane-1-carboxylic acid]	1.43	109.837 % of ANP	1.27	165.777 % of ANP	
CC[C@H]([C@H]1CC[C@H](C(=O)O)CC1)N(C)c1nc2c(c(N[C@@H](CN3C4CCCC3CC4)c3cnn(C)c3)n1)CN(c1ccc(F)cc1)CC2 [Compound 80, (1R,4r)-4-((1R)-1-((4-(((1R)-2-(8-azabicyclo[3.2.1]octan-8-yl)-1-(1-methyl-1H-pyrazol-4-yl)ethyl)amino)-6-(4-fluorophenyl)-5,6,7,8-tetrahydropyrido[4,3-d]pyrimidin-2-yl)(methyl)amino)propyl)cyclohexane-1-carboxylic acid]	0.267	94.876 % of ANP		102.546 % of ANP	0.137
CC[C@H](N(C)c1nc2c(c(N[C@@H](CN3CCC[C@H](CF)C3)c3cnn(C)c3)n1)C[C@](C)(c1ccccc1)CC2)C12CC(C(=O)O)(C1)C2 [Compound 43, 3-((S)-1-(((R)-4-(((R)-2-((S)-3-(fluoromethyl)piperidin-1-yl)-1-(1-methyl-1H-pyrazol-4-yl)ethyl)amino)-6-methyl-6-phenyl-5,6,7,8-tetrahydroquinazolin-2-yl)(methyl)amino)propyl)bicyclo[1.1.1]pentane-1-carboxylic acid]	0.17	101.178 % of ANP	0.158	104.036 % of ANP	
CC[C@@H](N(C)c1nc2c(c(N[C@@H](CN3C4CCCC3CCC4)c3cnn(C)c3C)n1)C[C@H](c1cccc(F)c1)CC2)C12CC(C(=O)O)(C1)C2 [Compound 89, 3-((R)-1-(((R)-4-(((R)-2-((1S,5S)-9-azabicyclo[3.3.1]nonan-9-yl)-1-(1,5-dimethyl-1H-pyrazol-4-yl)ethyl)amino)-6-(3-fluorophenyl)-5,6,7,8-tetrahydroquinazolin-2-yl)(methyl)amino)propyl)bicyclo[1.1.1]pentane-1-carboxylic acid]	0.309	98.816 % of ANP		103.084 % of ANP	0.268
CC[C@@H](Nc1nc2c(c(N[C@@H](CN3CCCC(F)(F)CC3)c3cnn(CC)c3)n1)C[C@H](c1ccccc1)CC2)[C@H]1CC[C@H](C(=O)O)CC1 [Compound 137, (1R,4r)-4-((R)-1-(((R)-4-(((R)-2-(4,4-difluoroazepan-1-yl)-1-(1-ethyl-1H-pyrazol-4-yl)ethyl)amino)-6-phenyl-5,6,7,8-tetrahydroquinazolin-2-yl)amino)propyl)cyclohexane-1-carboxylic acid]	0.84	95.603 % of ANP	0.379	99.351 % of ANP	
CCC(N(C)c1nc2c(c(N[C@@H](CN3C4CCCC3CCC4)c3cnn(C)c3)n1)C[C@H](c1ccccc1)CC2)C12CC(C(=O)O)(C1)C2 (stereo partly drawn) [Compound 74, 3-(1-(((R)-4-(((R)-2-((1S,5S)-9-azabicyclo[3.3.1]nonan-9-yl)-1-(1-methyl-1H-pyrazol-4-yl)ethyl)amino)-6-phenyl-5,6,7,8-tetrahydroquinazolin-2-yl)(methyl)amino)-1l3-propyl)bicyclo[1.1.1]pentane-1-carboxylic acid]	0.246	102.182 % of ANP		117.270 % of ANP	0.167
CC[C@@H](N(C)c1nc2c(c(N[C@@H](CN3CCC[C@H](C)C3)c3cnn(C)c3)n1)C[C@H](c1ccccc1)CC2)C12CC(C(=O)O)(C1)C2 [Compound 44, 3-((R)-1-(methyl((R)-4-(((R)-1-(1-methyl-1H-pyrazol-4-yl)-2-((S)-3-methylpiperidin-1-yl)ethyl)amino)-6-phenyl-5,6,7,8-tetrahydroquinazolin-2-yl)amino)propyl)bicyclo[1.1.1]pentane-1-carboxylic acid]	0.173	99.256 % of ANP	0.102	107.199 % of ANP	
CC[C@H]([C@H]1CC[C@H](C(=O)O)CC1)N(C)c1nc2c(c(N[C@@H](CN3C4CCCC3CC4)c3cnn(C)c3C)n1)C[C@H](c1cccc(F)c1)CC2 [Compound 16, (1R,4r)-4-((1R)-1-(((6R)-4-(((1R)-2-(8-azabicyclo[3.2.1]octan-8-yl)-1-(1,5-dimethyl-1H-pyrazol-4-yl)ethyl)amino)-6-(3-fluorophenyl)-5,6,7,8-tetrahydroquinazolin-2-yl)(methyl)amino)propyl)cyclohexane-1-carboxylic acid]	0.103	100.021 % of ANP		98.785 % of ANP	0.047
CC[C@H]([C@H]1CC[C@H](C(=O)O)CC1)N(C)c1nc2c(c(N[C@@H](CN3CCC[C@H](C)C3)c3cnn(C)c3)n1)C[C@H](c1ccccc1F)CC2 [Compound 48, (1R,4r)-4-((R)-1-(((R)-6-(2-fluorophenyl)-4-(((R)-1-(1-methyl-1H-pyrazol-4-yl)-2-((S)-3-methylpiperidin-1-yl)ethyl)amino)-5,6,7,8-tetrahydroquinazolin-2-yl)(methyl)amino)propyl)cyclohexane-1-carboxylic acid]	0.183	106.036 % of ANP	0.101	101.062 % of ANP	
CC[C@@H](Nc1nc2c(c(N[C@@H](CN3CCC[C@H](C)C3)c3cnn(C(C)C)c3)n1)C[C@H](c1ccccc1)CC2)[C@H]1CC[C@H](C(=O)O)CC1 [Compound 22, (1R,4r)-4-((R)-1-(((R)-4-(((R)-1-(1-isopropyl-1H-pyrazol-4-yl)-2-((S)-3-methylpiperidin-1-yl)ethyl)amino)-6-phenyl-5,6,7,8-tetrahydroquinazolin-2-yl)amino)propyl)cyclohexane-1-carboxylic acid]	0.114	102.676 % of ANP	0.074	103.742 % of ANP	
